Measurements from ChEMBL document CHEMBL5678818, “Discovery of potent SOS1 inhibitors that block RAS activation via disruption of the RAS-SOS1 interaction” (Proc Natl Acad Sci U S A, 2019).

Columns and labels:
[1] = system: Receptor-type tyrosine-protein kinase FLT3 (Homo sapiens), P36888 [UNDEFINED MUTATION]; experiment: Inhibition of FLT3 ITD/F691L mutant (unknown origin) assessed as residual activity at 1000 nM by KINOMEscan analysis relative to control
[2] = molecular target: T1, Serine/threonine-protein kinase TBK1 (Homo sapiens) (UniProt Q9UHD2); experiment: Inhibition of TBK1 (unknown origin) assessed as residual activity at 100 nM by KINOMEscan analysis relative to control
T1 sequence (whole entry): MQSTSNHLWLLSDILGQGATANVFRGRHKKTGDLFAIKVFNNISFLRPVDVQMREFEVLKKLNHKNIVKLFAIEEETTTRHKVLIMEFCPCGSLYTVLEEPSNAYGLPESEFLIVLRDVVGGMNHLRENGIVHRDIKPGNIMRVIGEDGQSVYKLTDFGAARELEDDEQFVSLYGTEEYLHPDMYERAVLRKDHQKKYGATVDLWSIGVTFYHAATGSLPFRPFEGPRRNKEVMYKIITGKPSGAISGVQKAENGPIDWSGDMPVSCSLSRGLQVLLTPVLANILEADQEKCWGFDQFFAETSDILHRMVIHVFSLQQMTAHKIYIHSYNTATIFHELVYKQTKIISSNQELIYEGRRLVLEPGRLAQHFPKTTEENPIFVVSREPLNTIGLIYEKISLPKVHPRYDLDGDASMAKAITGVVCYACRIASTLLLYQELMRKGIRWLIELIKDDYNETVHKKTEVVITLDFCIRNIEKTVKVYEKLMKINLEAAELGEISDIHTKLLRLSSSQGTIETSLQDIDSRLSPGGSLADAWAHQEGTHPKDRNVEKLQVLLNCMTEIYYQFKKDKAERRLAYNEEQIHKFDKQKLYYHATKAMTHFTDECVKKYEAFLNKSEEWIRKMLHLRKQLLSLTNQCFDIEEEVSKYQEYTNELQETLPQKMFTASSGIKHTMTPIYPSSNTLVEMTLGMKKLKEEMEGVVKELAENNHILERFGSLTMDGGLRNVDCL

[3] = molecular target: Protein-tyrosine kinase 2-beta (Homo sapiens) (UniProt Q14289); experiment: Inhibition of PYK2 (unknown origin) assessed as residual activity at 100 nM by KINOMEscan analysis relative to control
Sequence of Protein-tyrosine kinase 2-beta (Homo sapiens) (Q14289 whole entry, looked up): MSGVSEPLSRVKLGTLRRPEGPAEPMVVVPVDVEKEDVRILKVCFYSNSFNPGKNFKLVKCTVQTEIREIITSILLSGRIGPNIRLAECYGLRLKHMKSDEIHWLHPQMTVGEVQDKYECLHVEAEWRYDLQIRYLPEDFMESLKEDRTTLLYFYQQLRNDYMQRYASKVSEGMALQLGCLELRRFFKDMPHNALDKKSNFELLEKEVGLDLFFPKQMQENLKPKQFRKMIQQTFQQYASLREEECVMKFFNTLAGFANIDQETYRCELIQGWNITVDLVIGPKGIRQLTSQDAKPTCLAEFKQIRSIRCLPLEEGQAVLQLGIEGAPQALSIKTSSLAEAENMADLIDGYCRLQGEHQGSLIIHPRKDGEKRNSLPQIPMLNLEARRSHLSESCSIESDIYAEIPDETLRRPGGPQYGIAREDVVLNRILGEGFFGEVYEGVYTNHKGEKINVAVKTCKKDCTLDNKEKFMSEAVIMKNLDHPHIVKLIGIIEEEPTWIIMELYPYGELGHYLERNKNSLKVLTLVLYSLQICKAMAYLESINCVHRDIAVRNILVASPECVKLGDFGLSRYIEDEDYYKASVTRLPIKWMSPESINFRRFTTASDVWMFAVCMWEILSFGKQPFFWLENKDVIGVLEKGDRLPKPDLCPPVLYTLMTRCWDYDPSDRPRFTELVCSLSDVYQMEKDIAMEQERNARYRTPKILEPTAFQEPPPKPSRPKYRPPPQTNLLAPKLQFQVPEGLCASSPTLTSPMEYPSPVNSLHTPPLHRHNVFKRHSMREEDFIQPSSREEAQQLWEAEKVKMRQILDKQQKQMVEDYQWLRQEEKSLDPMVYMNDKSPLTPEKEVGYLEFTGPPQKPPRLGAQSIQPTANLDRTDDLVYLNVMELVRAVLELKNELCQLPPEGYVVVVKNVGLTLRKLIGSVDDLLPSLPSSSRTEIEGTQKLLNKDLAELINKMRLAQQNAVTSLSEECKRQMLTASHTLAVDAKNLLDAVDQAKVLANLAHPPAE

[4] = molecular target: Maternal embryonic leucine zipper kinase (Homo sapiens) (UniProt Q14680); experiment: Inhibition of MELK (unknown origin) assessed as residual activity at 100 nM by KINOMEscan analysis relative to control
[5] = molecular target: Serine/threonine-protein kinase 35 (Homo sapiens) (UniProt Q8TDR2); experiment: Inhibition of STK35 (unknown origin) assessed as residual activity at 100 nM by KINOMEscan analysis relative to control
Sequence of Serine/threonine-protein kinase 35 (Homo sapiens) (Q8TDR2 whole entry): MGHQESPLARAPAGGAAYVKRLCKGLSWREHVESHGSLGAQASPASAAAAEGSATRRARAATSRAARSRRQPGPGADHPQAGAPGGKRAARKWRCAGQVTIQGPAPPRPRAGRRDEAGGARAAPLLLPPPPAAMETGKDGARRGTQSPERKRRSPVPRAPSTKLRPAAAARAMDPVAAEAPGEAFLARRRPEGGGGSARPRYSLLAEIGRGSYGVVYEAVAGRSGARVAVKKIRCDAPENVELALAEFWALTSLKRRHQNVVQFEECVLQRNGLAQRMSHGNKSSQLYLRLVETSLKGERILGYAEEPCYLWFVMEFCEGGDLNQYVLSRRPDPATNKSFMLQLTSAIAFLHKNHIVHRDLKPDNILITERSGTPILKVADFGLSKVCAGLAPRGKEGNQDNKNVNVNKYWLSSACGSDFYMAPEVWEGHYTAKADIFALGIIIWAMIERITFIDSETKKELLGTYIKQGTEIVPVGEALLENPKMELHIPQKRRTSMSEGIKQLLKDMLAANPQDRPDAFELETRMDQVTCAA

[6] = molecular target: Serine/threonine-protein kinase pim-1 (Homo sapiens) (UniProt P11309); experiment: Inhibition of PIM1 (unknown origin) assessed as residual activity at 100 nM by KINOMEscan analysis relative to control
Sequence of Serine/threonine-protein kinase pim-1 (Homo sapiens) (P11309 whole entry, looked up, the tested form may be a part): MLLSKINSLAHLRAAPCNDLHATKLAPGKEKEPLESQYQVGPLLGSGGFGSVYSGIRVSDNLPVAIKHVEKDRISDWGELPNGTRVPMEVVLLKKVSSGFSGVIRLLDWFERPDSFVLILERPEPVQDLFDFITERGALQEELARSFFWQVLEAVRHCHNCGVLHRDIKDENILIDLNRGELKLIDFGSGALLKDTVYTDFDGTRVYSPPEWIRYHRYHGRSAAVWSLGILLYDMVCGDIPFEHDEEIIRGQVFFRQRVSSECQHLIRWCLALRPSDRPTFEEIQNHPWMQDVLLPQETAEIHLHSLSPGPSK

Homo sapiens = species on record: Homo sapiens; experiment: Stabilization of N-terminal His10-tagged recombinant human KRAS G12C/C118S mutant (1 to 169 residues) expressed in Escherichia coli assessed as change in melting temperature at 100 uM with heating from 25 to 85 degreeC by thermal shift assay
[7] = molecular target: T2, Serine/threonine-protein kinase TAO3 (Homo sapiens) (UniProt Q9H2K8); experiment: Inhibition of TAOK3 (unknown origin) assessed as residual activity at 100 nM by KINOMEscan analysis relative to control
T2 sequence (whole entry): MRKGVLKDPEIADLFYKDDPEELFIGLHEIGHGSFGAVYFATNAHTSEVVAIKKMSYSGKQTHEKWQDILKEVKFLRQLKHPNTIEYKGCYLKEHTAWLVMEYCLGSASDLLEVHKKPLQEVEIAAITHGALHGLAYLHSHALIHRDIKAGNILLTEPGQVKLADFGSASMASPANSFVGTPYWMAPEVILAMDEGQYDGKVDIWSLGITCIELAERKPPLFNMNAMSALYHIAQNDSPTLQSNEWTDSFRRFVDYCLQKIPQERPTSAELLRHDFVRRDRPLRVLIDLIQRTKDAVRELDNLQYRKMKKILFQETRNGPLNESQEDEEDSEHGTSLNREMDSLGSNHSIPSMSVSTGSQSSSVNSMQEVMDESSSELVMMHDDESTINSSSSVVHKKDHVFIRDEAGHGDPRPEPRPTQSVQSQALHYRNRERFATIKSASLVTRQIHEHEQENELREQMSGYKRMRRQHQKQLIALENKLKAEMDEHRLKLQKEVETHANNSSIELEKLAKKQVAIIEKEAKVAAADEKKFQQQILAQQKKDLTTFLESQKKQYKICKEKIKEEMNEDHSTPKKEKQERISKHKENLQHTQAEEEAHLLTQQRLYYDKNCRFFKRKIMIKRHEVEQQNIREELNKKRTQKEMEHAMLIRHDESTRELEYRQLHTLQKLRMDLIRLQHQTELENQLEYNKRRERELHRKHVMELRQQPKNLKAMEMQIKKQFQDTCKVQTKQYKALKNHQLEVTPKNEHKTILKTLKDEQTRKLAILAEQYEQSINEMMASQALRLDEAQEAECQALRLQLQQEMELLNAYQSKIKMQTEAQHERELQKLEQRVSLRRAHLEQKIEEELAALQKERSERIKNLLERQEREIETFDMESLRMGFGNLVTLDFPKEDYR

[8] = molecular target: G protein-coupled receptor kinase 4 (Homo sapiens) (UniProt P32298); experiment: Inhibition of GRK4 (unknown origin) assessed as residual activity at 100 nM by KINOMEscan analysis relative to control
[9] = molecular target: Leucine-rich repeat serine/threonine-protein kinase 2 (Homo sapiens) (UniProt Q5S007); experiment: Inhibition of LRRK2 (unknown origin) assessed as residual activity at 100 nM by KINOMEscan analysis relative to control
[10] = molecular target: Serine/threonine-protein kinase PAK 6 (Homo sapiens) (UniProt Q9NQU5); experiment: Inhibition of PAK6 (unknown origin) assessed as residual activity at 100 nM by KINOMEscan analysis relative to control
Sequence of Serine/threonine-protein kinase PAK 6 (Homo sapiens) (Q9NQU5 whole entry, looked up): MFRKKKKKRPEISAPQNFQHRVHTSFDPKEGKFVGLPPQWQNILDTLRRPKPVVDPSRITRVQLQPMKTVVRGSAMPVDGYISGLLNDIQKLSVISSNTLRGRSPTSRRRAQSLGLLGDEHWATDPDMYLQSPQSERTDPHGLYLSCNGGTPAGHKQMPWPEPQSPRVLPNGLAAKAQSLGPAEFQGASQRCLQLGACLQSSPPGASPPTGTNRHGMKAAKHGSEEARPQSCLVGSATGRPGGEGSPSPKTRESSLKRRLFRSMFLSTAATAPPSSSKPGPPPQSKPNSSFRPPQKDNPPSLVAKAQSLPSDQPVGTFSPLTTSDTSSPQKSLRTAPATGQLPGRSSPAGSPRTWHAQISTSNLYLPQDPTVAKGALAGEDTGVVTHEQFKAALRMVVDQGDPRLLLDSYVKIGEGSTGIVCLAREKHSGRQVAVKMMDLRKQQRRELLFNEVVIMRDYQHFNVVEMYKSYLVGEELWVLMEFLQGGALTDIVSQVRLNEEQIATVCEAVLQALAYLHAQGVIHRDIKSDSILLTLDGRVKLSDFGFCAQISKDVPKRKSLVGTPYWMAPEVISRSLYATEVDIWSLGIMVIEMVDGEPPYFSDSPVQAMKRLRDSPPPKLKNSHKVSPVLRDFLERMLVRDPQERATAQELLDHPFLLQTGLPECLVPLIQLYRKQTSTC

[11] = system: Mast/stem cell growth factor receptor Kit (Homo sapiens), P10721 [L576P]; experiment: Inhibition of KIT L576P mutant (unknown origin) assessed as residual activity at 100 nM by KINOMEscan analysis relative to control
Sequence of Mast/stem cell growth factor receptor Kit (Homo sapiens), P10721 [L576P] (P10721 whole entry L576P): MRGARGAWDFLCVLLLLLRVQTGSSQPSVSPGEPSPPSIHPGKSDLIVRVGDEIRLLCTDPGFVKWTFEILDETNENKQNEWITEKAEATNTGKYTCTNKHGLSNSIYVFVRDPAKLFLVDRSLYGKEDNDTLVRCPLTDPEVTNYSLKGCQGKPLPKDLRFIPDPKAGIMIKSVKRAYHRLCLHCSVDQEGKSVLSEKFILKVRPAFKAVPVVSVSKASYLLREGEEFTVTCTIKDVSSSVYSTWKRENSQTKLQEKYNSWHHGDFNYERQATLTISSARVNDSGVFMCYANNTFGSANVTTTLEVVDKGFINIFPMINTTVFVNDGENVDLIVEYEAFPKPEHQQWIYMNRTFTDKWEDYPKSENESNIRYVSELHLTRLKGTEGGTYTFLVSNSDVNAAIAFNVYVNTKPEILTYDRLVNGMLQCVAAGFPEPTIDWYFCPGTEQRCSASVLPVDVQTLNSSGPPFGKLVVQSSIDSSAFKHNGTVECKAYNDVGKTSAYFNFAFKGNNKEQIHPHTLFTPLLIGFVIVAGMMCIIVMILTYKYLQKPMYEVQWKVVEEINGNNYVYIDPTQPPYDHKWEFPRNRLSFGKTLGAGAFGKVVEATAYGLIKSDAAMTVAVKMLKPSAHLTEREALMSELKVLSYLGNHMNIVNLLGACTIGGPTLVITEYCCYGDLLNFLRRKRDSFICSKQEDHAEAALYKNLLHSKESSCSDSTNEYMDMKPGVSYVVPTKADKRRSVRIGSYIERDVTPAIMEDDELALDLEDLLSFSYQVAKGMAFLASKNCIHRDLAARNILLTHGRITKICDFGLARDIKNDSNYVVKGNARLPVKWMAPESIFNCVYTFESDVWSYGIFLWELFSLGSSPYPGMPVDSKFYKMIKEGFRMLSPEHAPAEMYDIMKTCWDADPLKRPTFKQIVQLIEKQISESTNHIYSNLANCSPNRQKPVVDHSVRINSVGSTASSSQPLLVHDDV

[12] = molecular target: RAC-beta serine/threonine-protein kinase (Homo sapiens) (UniProt P31751); experiment: Inhibition of AKT2 (unknown origin) assessed as residual activity at 100 nM by KINOMEscan analysis relative to control
Sequence of RAC-beta serine/threonine-protein kinase (Homo sapiens) (P31751 whole entry): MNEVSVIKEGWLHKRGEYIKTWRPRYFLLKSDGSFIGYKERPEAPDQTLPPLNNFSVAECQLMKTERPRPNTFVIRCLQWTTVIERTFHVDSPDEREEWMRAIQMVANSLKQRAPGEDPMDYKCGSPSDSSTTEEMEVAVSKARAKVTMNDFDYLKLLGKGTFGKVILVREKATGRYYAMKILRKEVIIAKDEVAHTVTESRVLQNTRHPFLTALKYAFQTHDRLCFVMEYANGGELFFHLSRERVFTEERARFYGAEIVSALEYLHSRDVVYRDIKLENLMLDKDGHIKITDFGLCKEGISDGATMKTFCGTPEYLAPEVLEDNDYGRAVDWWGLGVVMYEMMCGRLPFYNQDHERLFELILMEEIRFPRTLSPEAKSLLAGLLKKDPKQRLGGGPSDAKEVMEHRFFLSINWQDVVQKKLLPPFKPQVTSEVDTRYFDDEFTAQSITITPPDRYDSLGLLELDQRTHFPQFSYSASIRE

[13] = system: Mast/stem cell growth factor receptor Kit (Homo sapiens), P10721 [V559D,T670I]; experiment: Inhibition of KIT V559D/T670I mutant (unknown origin) assessed as residual activity at 100 nM by KINOMEscan analysis relative to control

Sequence of Receptor-type tyrosine-protein kinase FLT3 (Homo sapiens), P36888 [UNDEFINED MUTATION] (P36888 whole entry, looked up, stated change not applied): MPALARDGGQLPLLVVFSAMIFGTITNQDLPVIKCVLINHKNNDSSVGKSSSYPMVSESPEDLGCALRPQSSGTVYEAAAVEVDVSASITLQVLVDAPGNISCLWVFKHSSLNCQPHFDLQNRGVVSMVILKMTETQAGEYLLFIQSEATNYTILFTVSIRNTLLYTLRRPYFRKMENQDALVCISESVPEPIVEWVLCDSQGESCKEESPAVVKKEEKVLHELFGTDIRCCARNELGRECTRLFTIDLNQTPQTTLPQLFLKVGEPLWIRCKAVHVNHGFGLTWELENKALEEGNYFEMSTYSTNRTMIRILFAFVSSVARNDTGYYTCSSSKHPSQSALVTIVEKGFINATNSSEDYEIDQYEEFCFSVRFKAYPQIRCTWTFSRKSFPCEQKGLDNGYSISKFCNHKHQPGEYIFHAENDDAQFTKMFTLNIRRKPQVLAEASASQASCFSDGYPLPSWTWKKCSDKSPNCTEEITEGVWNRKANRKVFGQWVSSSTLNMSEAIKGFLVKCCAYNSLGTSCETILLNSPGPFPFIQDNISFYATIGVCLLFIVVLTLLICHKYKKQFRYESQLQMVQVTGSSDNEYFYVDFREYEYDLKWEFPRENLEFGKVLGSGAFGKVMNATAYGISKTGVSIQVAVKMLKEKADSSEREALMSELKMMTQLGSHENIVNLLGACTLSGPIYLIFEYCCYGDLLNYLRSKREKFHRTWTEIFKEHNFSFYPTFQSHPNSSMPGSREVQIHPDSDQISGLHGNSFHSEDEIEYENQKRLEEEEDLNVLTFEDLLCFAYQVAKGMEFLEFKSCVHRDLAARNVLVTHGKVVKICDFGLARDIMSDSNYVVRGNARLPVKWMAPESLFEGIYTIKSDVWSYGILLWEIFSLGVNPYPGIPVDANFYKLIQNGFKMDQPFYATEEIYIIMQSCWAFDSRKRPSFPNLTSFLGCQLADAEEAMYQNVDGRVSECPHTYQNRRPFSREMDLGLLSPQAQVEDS

Compound | Activity [1] | Activity [2] | Activity [3] | Activity [4] | Activity [5] | Activity [6] | ΔTm (Homo sapiens) | Activity [7] | Activity [8] | Activity [9] | Activity [10] | Activity [11] | Activity [12] | Activity [13]
COc1cc2nc(C)nc(N[C@H](C)c3cccc(-c4cn[nH]c4)c3)c2cc1OC | 86% |  |  |  |  |  |  |  |  |  |  |  |  | 
COc1cc2ncnc(N[C@H](C)c3cccc4ccccc34)c2cc1OC |  | 96% | 100% | 73% | 98% | 89% | -1.9 °C | 82% | 62% | 82% | 92% | 85% | 88% | 92%
